Experimental findings from US20070054899A1 (priority 2003, published 2007) are described below.

Series [1] relates to uterine hypertrophy induced by androstenedione. The series is described as follows: Activity in vivo: inhibition of uterine hypertrophy induced by androstenedione. Details: species or system rat (Sprague-Dawley). Particulars: Rattus norvegicus, 96 h, immature female rats, androstenedione 30 mg/kg for 4 days, read-out: % inhibition to doses (μg/Kg); for inhibition in vivo at 0.001 mg/kg: dose 1 μg/Kg; for inhibition in vivo at 0.01 mg/kg: dose 10 μg/Kg; for inhibition in vivo at 0.1 mg/kg: dose 100 μg/Kg. As for the experimental part:
The activity in vivo of aromatase inhibition by compounds of formula (I) according to the invention has been tested according to the model established by Bharnagar et al. (1990).
In general, immature female rats of the Sprague-Dawley line of a weight ranging from 40 to 50 g have been treated with a dose of androstenedione at 30 mg/kg for 4 days, in the absence or in the presence of doses of various compounds of formula (I).
Four hours after administration of an aromatase inhibitor, the rats were sacrificed. Their uteruses were removed, cleared of adhering fat and conjunctive tissue, next the uteruses were weighed (wet weight). The dry weight of the uteruses was determined the following day after a step of drying for one night at 80° C.

The target in series [2] is T1, aromatase (microsomes from the human placenta) (Homo sapiens, UniProt P11511).
T1 construct: using microsomes from the human placenta as source of the enzyme; from tissue; host or cells: human placenta microsomes
T1 sequence (P11511 1-503): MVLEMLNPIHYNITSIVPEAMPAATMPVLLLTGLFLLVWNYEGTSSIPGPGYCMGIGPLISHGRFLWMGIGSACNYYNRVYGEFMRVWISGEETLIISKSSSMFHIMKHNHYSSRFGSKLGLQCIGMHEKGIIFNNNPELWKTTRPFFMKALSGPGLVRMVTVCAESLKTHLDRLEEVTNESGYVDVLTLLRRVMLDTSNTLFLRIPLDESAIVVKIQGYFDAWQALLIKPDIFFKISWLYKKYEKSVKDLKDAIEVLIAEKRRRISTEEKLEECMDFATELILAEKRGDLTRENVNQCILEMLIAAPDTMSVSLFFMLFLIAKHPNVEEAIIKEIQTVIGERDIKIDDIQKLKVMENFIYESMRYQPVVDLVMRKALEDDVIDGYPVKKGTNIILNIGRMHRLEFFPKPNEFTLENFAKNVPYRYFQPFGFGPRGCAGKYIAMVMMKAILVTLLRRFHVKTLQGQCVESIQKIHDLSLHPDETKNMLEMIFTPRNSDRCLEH
Kind of series: Aromatase inhibition in vitro, tritiated water method, human placenta microsomes. It counts as biochemical. Particulars: value without (h)/(e) mark; read-out: Activity In vitro IC50.

For the compound `CCn1c(=O)sc2ccc(C(c3ccc(C#N)cc3)n3cncn3)cc21` (stereo not drawn) [PCH246, 4-[(3-Ethyl-2-oxo-2,3-dihydro-1,3-benzothiazol-5-yl)(1H-1,2,4-triazol-1-yl)methyl]benzonitrile], the melting point fell in the range of 125 to 127 °C. For the same compound, in series [1], the inhibition in vivo at 0.001 mg/kg came to 22%, the inhibition in vivo at 0.01 mg/kg came out at 45% and the inhibition in vivo at 0.1 mg/kg worked out at 91%. Moreover, the IC50 in series [2] was determined as 5.51 nM.
The compound `Cn1c(=O)[se]c2cc(C(c3ccc(C#N)cc3)n3cncn3)ccc21` (stereo not drawn) [PCH300, 4-[(3-Methyl-2-oxo-2,3-dihydro-1,3-benzoselenazol-6-yl)(1H-1,2,4-triazol-1-yl)methyl]benzonitrile] yielded a melting point of 154 to 158 °C. In addition, in series [1], the inhibition in vivo at 0.001 mg/kg is 49%, the inhibition in vivo at 0.01 mg/kg was 86% and the inhibition in vivo at 0.1 mg/kg came to 91%. Besides, the half-maximal inhibitory concentration (IC50) in series [2] came out at 4.64 nM.
In the case of `N#Cc1ccc(C(c2ccc3[nH]c(=O)[se]c3c2)n2cncn2)cc1` (stereo not drawn) [PCH302, 4-[(2-oxo-2,3-dihydro-1,3-benzoselenazol-6-yl)(1H-1,2,4-triazol-1-yl)methyl]benzonitrile], the melting point was 223 to 226 °C. Also, in series [1], the inhibition in vivo at 0.001 mg/kg is 45%, the inhibition in vivo at 0.01 mg/kg came to 20% and the inhibition in vivo at 0.1 mg/kg turned out to be 63%. In series [2], the concentration for half-maximal inhibition (IC50) came out at 6.53 nM.

The term melting point denotes the temperature, or range, at which the solid turns liquid. The term IC50 denotes the concentration at which inhibition is half-maximal.
